Where “and” joins values, the source holds several entries; their conditions need not be identical. Equal values may be shown once. Where a name gives a salt, the structure may show the parent alone.
Test system: not given
Assay: not given
Conditions: not given

Row | SMILES | melting point
1 | COC(=O)CCc1ccccc1-c1[nH]c2cccc3c2c1CCNC3=O [AAA, 3-[2-(6-Oxo-3,4,5,6-tetrahydro-1H-azepino[5,4,3-cd]indol-2-yl)-phenyl]-propionic acid methyl ester] | 201 to 201.5 °C
2 | O=C1NCCc2c(-c3ccccc3CCCO)[nH]c3cccc1c23 [BBB, 2-[2-(3-Hydroxy-propyl)-phenyl]-1,3,4,5-tetrahydro-azepino[5,4,3-cd]indol-6-one] | 233.5 to 234.5 °C
3 | O=C1NCCc2c(-c3cccs3)[nH]c3cccc1c23 [BBBB, 2-Thiophen-2-yl-1,3,4,5-tetrahydro-azepino[5,4,3-cd]indol-6-one] | 220.5 to 222.5 °C
4 | O=C1NCCc2c(-c3ccc(O)cc3)[nH]c3cccc1c23 [CCC, 2-(4-Hydroxy-phenyl)-1,3,4,5-tetrahydro-azepino[5,4,3-cd]indol-6-one] | 300 °C (dec.)
5 | O=C1NCCc2c(-c3ccsc3)[nH]c3cccc1c23 [CCCC, 2-Thiophen-3-yl-1,3,4,5-tetrahydro-azepino[5,4,3-cd]indol-6-one] | 255 to 256 °C
6 | CN1CCc2c(-c3ccccc3)n(C)c3cccc(c23)C1=O [Compound 18a, 1,5-dimethyl-2-phenyl-3,4,5,6-tetrahydro-1H-azepino[5,4,3-cd]indol-6-one] | 175 to 177 °C
7 | O=C1NCCc2c(-c3cccc4ccccc34)[nH]c3cccc1c23 [Compound 41, 2-Naphthalen-1-yl-1,3,4,5-tetrahydro-azepino[5,4,3-cd]indol-6-one] | 305 °C (dec.)
8 | O=C1NCCc2c(-c3cccnc3)[nH]c3cccc1c23 [HHH, 2-Pyridin-3-yl-1,3,4,5-tetrahydro-azepino[5,4,3-cd]indol-6-one] | 260.5 to 262 °C
9 | O=C(Nc1ccccc1)c1[nH]c2cccc3c2c1CCNC3=O [KKKK, 6-Oxo-1,3,4,5-tetrahydro-1H-azepino[5,4,3-cd]indole-2-carboxylic Acid Phenylamide] | 320 to 322 °C (dec.)
10 | O=C1NCCc2c(-c3ccc4[nH]ccc4c3)[nH]c3cccc1c23 [VVV, 2-(1H-Indol-5-yl)-1,3,4,5-tetrahydro-azepino[5,4,3-cd]indol-6-one] | 315 to 317 °C (dec.)

Molecular target: purified PARP protein (Homo sapiens, UniProt P09874)
Assay: PARP enzyme inhibition assay
Type: biochemical
Conditions: Inhibition Constant Ki

Chain of purified PARP protein (P09874 whole entry): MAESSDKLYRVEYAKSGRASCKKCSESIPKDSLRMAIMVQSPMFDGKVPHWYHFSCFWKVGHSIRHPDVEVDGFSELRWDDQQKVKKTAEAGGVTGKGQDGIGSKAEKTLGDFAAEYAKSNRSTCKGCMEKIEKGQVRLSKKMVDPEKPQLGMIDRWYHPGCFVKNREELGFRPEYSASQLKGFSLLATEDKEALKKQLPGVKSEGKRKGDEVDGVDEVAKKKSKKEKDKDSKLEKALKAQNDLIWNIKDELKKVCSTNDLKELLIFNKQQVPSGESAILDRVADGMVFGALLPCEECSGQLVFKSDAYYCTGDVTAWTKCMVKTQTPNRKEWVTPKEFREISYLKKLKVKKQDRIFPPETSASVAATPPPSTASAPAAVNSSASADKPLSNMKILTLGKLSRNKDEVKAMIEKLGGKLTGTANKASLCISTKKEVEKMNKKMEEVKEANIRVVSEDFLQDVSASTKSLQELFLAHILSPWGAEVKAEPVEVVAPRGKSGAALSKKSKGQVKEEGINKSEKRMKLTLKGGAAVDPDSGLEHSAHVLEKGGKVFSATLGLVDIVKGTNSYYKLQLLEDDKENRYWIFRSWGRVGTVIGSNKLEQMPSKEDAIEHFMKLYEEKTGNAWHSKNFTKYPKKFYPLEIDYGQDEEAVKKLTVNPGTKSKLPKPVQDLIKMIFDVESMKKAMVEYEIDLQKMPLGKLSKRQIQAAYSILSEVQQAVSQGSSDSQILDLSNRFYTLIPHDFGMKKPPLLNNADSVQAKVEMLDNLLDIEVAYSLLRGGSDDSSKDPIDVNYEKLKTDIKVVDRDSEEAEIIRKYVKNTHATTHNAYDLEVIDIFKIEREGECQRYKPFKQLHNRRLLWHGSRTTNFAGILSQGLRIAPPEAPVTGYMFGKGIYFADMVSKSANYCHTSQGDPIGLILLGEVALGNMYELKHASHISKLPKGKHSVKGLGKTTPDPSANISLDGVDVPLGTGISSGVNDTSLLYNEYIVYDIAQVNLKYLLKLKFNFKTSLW

Row | SMILES | Ki [nM]
11 | O=C1NCCc2c(-c3ccc[nH]3)[nH]c3cccc1c23 [DDDD, 2-(1H-Pyrrol-2-yl)-1,3,4,5-etatrhydro-azepino[5,4,3-cd]indol-6-one] | 7.7

Same assay, conditions: [32P]NAD+ incorporation, 500 μM NAD+, 25° C.; two values in a cell = tested twice; read-out: Inhibition Constant Ki

Row | SMILES | Ki
12 | O=C1NCC(c2ccccc2)c2c[nH]c3cccc1c23 (racemic) [Compound 20, (rac)-3-Phenyl-3,4,5,6-tetrahydro-1H-azepino[5,4,3-cd]indol-6-one] | 45 nM
13 | COc1ccc(C2CNC(=O)c3cccc4[nH]cc2c34)cc1 (racemic) [RRRR, (rac)-3-(4-Methoxyphenyl)-3,4,5,6-tetrahydro-1H-azepino[5,4,3-cd]indol-6-one] | 61 nM
14 | COC(=O)CCc1ccccc1-c1[nH]c2cccc3c2c1CCNC3=O [AAA, 3-[2-(6-Oxo-3,4,5,6-tetrahydro-1H-azepino[5,4,3-cd]indol-2-yl)-phenyl]-propionic acid methyl ester] | 11.4 nM
15 | O=C1NN=Cc2c(-c3ccc(F)cc3)[nH]c3cccc1c23 [AAAA] | 1.1 nM
16 | O=C1NCCc2c(-c3ccccc3CCCO)[nH]c3cccc1c23 [BBB, 2-[2-(3-Hydroxy-propyl)-phenyl]-1,3,4,5-tetrahydro-azepino[5,4,3-cd]indol-6-one] | 20 nM
17 | O=C1NCCc2c(-c3ccc(O)cc3)[nH]c3cccc1c23 [CCC, 2-(4-Hydroxy-phenyl)-1,3,4,5-tetrahydro-azepino[5,4,3-cd]indol-6-one] | 7.3 nM
18 | O=C1NCCc2c(-c3ccsc3)[nH]c3cccc1c23 [CCCC, 2-Thiophen-3-yl-1,3,4,5-tetrahydro-azepino[5,4,3-cd]indol-6-one] | 4.8 nM
19 | O=C1NCc2c(-c3ccccc3)[nH]c3cccc1c23 [Compound 3, Phenyl-3,4-dihydropyrrolo[4,3,2-de]isoquinolin-5-(1H)-one] | 2.8 nM
20 | O=C1NCCc2c[nH]c3cccc1c23 [Compound 10, 3,4,5,6-tetrahydro-1H-azepino[5,4,3-cd]indol-6-one] | 38 nM
21 | O=C1NCCc2c(Br)[nH]c3cccc1c23 [Compound 11, 2-Bromo-3,4,5,6-tetrahydro-1H-azepino[5,4,3-cd]indol-6-one] | 7.3 nM
22 | O=C1NCCc2c(-c3cccc([N+](=O)[O-])c3)[nH]c3cccc1c23 [Compound 14, 2-(3-Nitrophenyl)-3,4,5,6-tetrahydro-1H-azepino[5,4,3-cd]indol-6-one] | 1.4 nM
23 | O=C1NCCc2c(C#Cc3ccccc3)[nH]c3cccc1c23 [Compound 17] | 6.5 nM
24 | Cn1c(-c2ccccc2)c2c3c(cccc31)C(=O)NCC2 [Compound 18, 1-Methyl-2-phenyl-3,4,5,6-tetrahydro-1H-azepino[5,4,3-cd]indol-6-one] | > 1000 nM
25 | CN(C)Cc1cccc(-c2[nH]c3cccc4c3c2CNC4=O)c1 [Compound 25] | 4 nM
26 | O=C1NCCc2c(-c3ccccc3)[nH]c3cc(Br)cc1c23 [Compound 26, 8-Bromo-2-phenyl-3,4,5,6-tetrahydro-1H-azepino[5,4,3-cd]indol-6-one] | 22 nM and 18 nM
27 | O=C1NCCc2c(-c3ccc(F)c(Cl)c3)[nH]c3cccc1c23 [Compound 35, 2-(3-Chloro-4-fluoro-phenyl)-1,3,4,5-tetrahydro-azepino[5,4,3-cd]indol-6-one] | 3.8 nM and 5.8 nM
28 | O=C1NCCc2c(I)[nH]c3cccc1c23 [Compound 43, 2-Iodo-1,3,4,5-tetrahydro-azepino[5,4,3-cd]indol-6-one] | 2.6 nM
29 | O=C1NCCc2c(-c3[nH]c4cccc5c4c3CCNC5=O)[nH]c3cccc1c23 [Compound TTT, 1,3,4,5,1′,3′,4′,5′-Octahydro-[2,2′]bi[azepino[5,4,3-cd]indolyl]-6,6′-dione] | 26 nM
30 | O=C(O)c1[nH]c2cccc3c2c1CCNC3=O [KKK, 6-Oxo-3,4,5,6-tetrahydro-1H-azepino[5,4,3-cd]indole-2-carboxylic acid sodium salt] | 222 nM
31 | O=C(Nc1ccc(Cl)cc1)c1[nH]c2cccc3c2c1CCNC3=O [LLLL, 6-Oxo-1,3,4,5-tetrahydro-1H-azepino[5,4,3-cd]indole-2-carboxylic acid (4-chlorophenyl)-amide] | 8.6 nM
32 | O=C(Nc1ccc2ccccc2c1)c1[nH]c2cccc3c2c1CCNC3=O [MMMM, 6-Oxo-1,3,4,5-tetrahydro-1H-azepino[5,4,3-cd]indole-2-carboxylic Acid naphthalen-2-ylamide] | 16 nM
33 | CC(=O)Nc1ccc(F)cc1-c1[nH]c2cccc3c2c1CCNC3=O [NNN, N-[4-Fluoro-2-(6-oxo-3,4,5,6-tetrahydro-1H-azepino[5,4,3-cd]indol-2-yl)-phenyl]-acetamide] | 172 nM
34 | O=C(NC1CC1)c1[nH]c2cccc3c2c1CCNC3=O [QQQQ, 6-Oxo-1,3,4,5-tetrahydro-1H-azepino[5,4,3-cd]indole-2-carboxylic Acid Cyclopropylamide] | 21 nM
35 | Nc1cccc(-c2[nH]c3cccc4c3c2CCNC4=O)c1 [RR, 2-(3-Aminophenyl)-3,4,5,6-tetrahydro-1H-azepino[5,4,3-cd]indol-6-one] | 6.9 nM
36 | O=C1NCCc2c(-c3cccc(CN4CCOCC4)c3)[nH]c3cccc1c23 [SSSS, 2-(3-Morpholin-4-ylmethylphenyl)-3,4,5,6-tetrahydro-1H-azepino[5,4,3-cd]indol-6-one] | 19 nM
37 | O=C1NCCc2c(-c3ccc(CO)cc3)[nH]c3cccc1c23 [WWWW, 2-(4-Hydroxymethylphenyl)-3,4,5,6-tetrahydro-1H-azepino[5,4,3-cd]indol-6-one] | 5.7 nM
38 | O=C1NN=C(c2ccc(C(F)(F)F)cc2)c2c[nH]c3cccc1c23 [YYYY] | 9 nM
39 | O=C1NN=Cc2c(-c3ccc(Cl)cc3)[nH]c3cccc1c23 [ZZZ, (4-Chloro-phenyl)-1,5-dihydro-[1,2]diazepino[4,5,6-cd]indol-6-one] | 0.7 nM
40 | O=C1NN=C(C(F)(F)C(F)(F)F)c2c[nH]c3cccc1c23 [ZZZZ, 1,5-Dihydro-3-pentafluoroethyl-[1,2]diazepino[4,5,6-cd]-indol-6-one] | 40 nM

From patent publication US7429578B2, “Tricyclic inhibitors of poly(ADP-ribose) polymerases” (Agouron Pharmaceuticals, Inc., priority 1999, dated 2008)
